Laboratory results: US20240415819A1, “MACROCYCLIC COMPOUNDS AS PROTEASOME SUBUNIT BETA TYPE-5 INHIBITORS” (Lead Discovery Center GmbH, priority 2021, published 2024)
pIC50: −log10 of the molar value.

Experiments:
[1] = test system: Hs 746T (human gastric carcinoma cell line); experiment: 48 hr CTG viability assay, Hs 746T; format: cell-based; details: Hs746T, 48 hr CTG, read-out: Hs 746T IC50
Outline: (§1)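 Growth inhibition by compound over 48 h; IC50 (nM) derived from duplicate CellTiter-Glo luminescence readings across 0.0015–10 uM.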

[2] = biological target: T1, β5 subunit of the human immunoproteasome (IPS) (Homo sapiens, UniProt P28062); experiment: β5 inhibition assay, human immunoproteasome (Suc-LLVY-AMC); format: biochemical; details: IC50 class, Suc-LLVY-AMC substrate
T1 construct: purchased Boston Biochem E-370
Outline: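 Human immunoproteasome (1 nM final) was preincubated 10 min at RT with compound in 100 mM HEPES pH 7.5, 50 mM NaCl, 0.02% SDS, 1 mM DTT. Suc-LLVY-AMC (22.6 μM final) was then added for 4 h at RT in the dark. After stopping with 1 μM bortezomib, AMC fluorescence was read (ex 355/em 460 nm).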

[3] = test system: A549 (human lung carcinoma cell line); experiment: Glo assay of A549 cells (Table 3; ProteasomeGlo plating scheme); format: cell-based; details: Homo sapiens; A549 cells; read-out: PGLo A549
Outline: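 Luminescent read-out of cellular chymotrypsin-like proteasome activity: cells exposed to compound 105 min at 37° C., 5% CO2, then given Suc-LLVY-Glo reagent, shaken 2-5 min and kept dark 10-15 min before reading. Values are IC50 [nM].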

[4] = test system: RPMI 8226 (B lymphocyte cell line, multiple myeloma); experiment: 48 hr CTG viability assay, RPMI 8226; format: cell-based; details: Homo sapiens, RPMI-8226; 48 hr CTG; read-out: RPMI-8226 IC50
Outline: as §1

[5] = biological target: T2, β5 subunit of the human constitutive proteasome (CPS) (Homo sapiens, UniProt P28074); experiment: β5 inhibition assay, human constitutive proteasome (Suc-LLVY-AMC); format: biochemical; details: IC50 class, Suc-LLVY-AMC substrate
T2 construct: purchased Boston Biochem E-360
Method: The enzymatic activity of the β5 subunit of the human constitutive proteasome (CPS) is analyzed. In another assay, which differs from the assay of the human constitutive proteasome only in using the human immunoproteasome (IPS) the enzymatic activity of the β5 subunit of the human immunoproteasome (IPS) is analyzed. […] Inhibition is indicated as IC50 [nM] (“-”=not measured).

[6] = test system: MM1 S (B lymphoblast cell line); experiment: 48 hr CTG viability assay, MM1S; format: cell-based; details: Homo sapiens, 48 hr CTG, read-out: MM1S IC50
Outline: as §1

SMILES | pIC50 [1] | pIC50 [2] | pIC50 [3] | pIC50 [4] | pIC50 [5] | pIC50 [6]
Cc1ccc2cc1CNC(=O)[C@H](CCc1ccccc1)NC(=O)[C@@H](NC(=O)CCN1CC3CCC1C3)CC(=O)N1CCCC(CCO2)C1 (stereo partly drawn) [Compound 673, 3-(2-azabicyclo[2.2.1]heptan-2-yl)-N-((9S,12S)-5^4-methyl-8,11,14-trioxo-9-phenethyl-4-oxa-7,10-diaza-1(3,1)-piperidina-5(1,3)-benzenacyclotetradecaphane-12-yl)propanamide] | > 7.00 | > 7.00 | > 7.00 | > 7.00 | > 7.00 | > 7.00
Cc1ccc2cc1CNC(=O)[C@H](CCc1ccccc1)NC(=O)[C@@H](NC(=O)N1CC(C)(C)c3cc(N)ccc31)CC(=O)N1CCCC(CCO2)C1 (stereo partly drawn) [Compound 666, 5-amino-3,3-dimethyl-N-((9S,12S)-5^4-methyl-8,11,14-trioxo-9-phenethyl-4-oxa-7,10-diaza-1(3,1)-piperidina-5(1,3)-benzenacyclotetradecaphane-12-yl)indoline-1-carboxamide] | > 7.00 | > 7.00 | > 7.00 | > 7.00 | > 7.00 | > 7.00
Cc1ccc2cc1CNC(=O)[C@H](CCc1ccccc1)NC(=O)[C@@H](NC(=O)C1CC3(C1)CN(C(=O)OC(C)(C)C)C3)CC(=O)N1CCCC(CCO2)C1 (stereo partly drawn) [Compound 580, tert-butyl 6-(((9S,12S)-5^4-methyl-8,11,14-trioxo-9-phenethyl-4-oxa-7,10-diaza-1(3,1)-piperidina-5(1,3)-benzenacyclotetradecaphane-12-yl)carbamoyl)-2-azaspiro[3.3]heptane-2-carboxylate] | > 7.00 | > 7.00 | > 7.00 | > 7.00 | > 7.00 | > 7.00
CC(C)(CO)C(=O)N[C@H]1CC(=O)N2CCCC(CCOc3ccc(F)c(c3)CNC(=O)[C@H](CCc3ccccc3)NC1=O)C2 (stereo partly drawn) [Compound 684, N-((9S,12S)-5^4-fluoro-8,11,14-trioxo-9-phenethyl-4-oxa-7,10-diaza-1(3,1)-piperidina-5(1,3)-benzenacyclotetradecaphane-12-yl)-3-hydroxy-2,2-dimethylpropanamide] | > 7.00 | > 7.00 | > 7.00 | > 7.00 | > 7.00 | > 7.00
CCN1CCN(C(=O)N[C@H]2CC(=O)N3CCCC(CCOc4ccc(C)c(c4)CNC(=O)[C@H](CCc4ccccc4)NC2=O)C3)CC1 (stereo partly drawn) [Compound 688, 4-ethyl-N-((9S,12S)-5^4-methyl-8,11,14-trioxo-9-phenethyl-4-oxa-7,10-diaza-1(3,1)-piperidina-5(1,3)-benzenacyclotetradecaphane-12-yl)piperazine-1-carboxamide] | > 7.00 | > 7.00 | > 7.00 | > 7.00 | > 7.00 | > 7.00
Cc1ccc2cc1CNC(=O)[C@H](CCc1ccccc1)NC(=O)[C@@H](NC(=O)CCOC1CC3(COC3)C1)CC(=O)N1CCCC(CCO2)C1 (stereo partly drawn) [Compound 590, 3-((2-oxaspiro[3.3]heptan-6-yl)oxy)-N-((9S,12S)-5^4-methyl-8,11,14-trioxo-9-phenethyl-4-oxa-7,10-diaza-1(3,1)-piperidina-5(1,3)-benzenacyclotetradecaphane-12-yl)propanamide] | > 7.00 | > 7.00 | > 7.00 | > 7.00 | > 7.00 | > 7.00
Cc1ccc2cc1CNC(=O)[C@H](CCc1ccccc1)NC(=O)[C@@H](NC(=O)CCN1CCC3(CCCC3)CC1)CC(=O)N1CCCC(CCO2)C1 (stereo partly drawn) [Compound 613, N-((9S,12S)-5^4-methyl-8,11,14-trioxo-9-phenethyl-4-oxa-7,10-diaza-1(3,1)-piperidina-5(1,3)-benzenacyclotetradecaphane-12-yl)-3-(8-azaspiro[4.5]decan-8-yl)propanamide] | > 7.00 | > 7.00 | > 7.00 | > 7.00 | > 7.00 | > 7.00
C#CCC[C@@H]1NC(=O)[C@@H](NC(=O)Cc2cn3ccsc3n2)CC(=O)N2CCCC(CCOc3ccc(C)c(c3)CNC1=O)C2 (stereo partly drawn) [Compound 686, N-((9S,12S)-9-(but-3-yn-1-yl)-5^4-methyl-8,11,14-trioxo-4-oxa-7,10-diaza-1(3,1)-piperidina-5(1,3)-benzenacyclotetradecaphane-12-yl)-2-(imidazo[2,1-b]thiazol-6-yl)acetamide] | > 7.00 | > 7.00 | > 7.00 | > 7.00 | > 7.00 | > 7.00

The remaining lines, values ahead:

pIC50 [1] | pIC50 [2] | pIC50 [3] | pIC50 [4] | pIC50 [5] | pIC50 [6] | SMILES
> 7.00 | > 7.00 | > 7.00 | > 7.00 | > 7.00 | > 7.00 | Cc1ccc2cc1CNC(=O)[C@H](CCc1ccccc1)NC(=O)[C@@H](NC(=O)C1CC3(CCC3)C1)CC(=O)N1CCCC(CCO2)C1 (stereo partly drawn) [Compound 631, N-((9S,12S)-5^4-methyl-8,11,14-trioxo-9-phenethyl-4-oxa-7,10-diaza-1(3,1)-piperidina-5(1,3)-benzenacyclotetradecaphane-12-yl)spiro[3.3]heptane-2-carboxamide]
> 7.00 | > 7.00 | > 7.00 | > 7.00 | > 7.00 | > 7.00 | Cc1ccc2cc1CNC(=O)[C@H](CCc1ccccc1)NC(=O)[C@@H](NC(=O)CCOCc1ccccc1)CC(=O)N1CCCC(CCO2)C1 (stereo partly drawn) [Compound 589, 3-(benzyloxy)-N-((9S,12S)-5^4-methyl-8,11,14-trioxo-9-phenethyl-4-oxa-7,10-diaza-1(3,1)-piperidina-5(1,3)-benzenacyclotetradecaphane-12-yl)propanamide]
> 7.00 | > 7.00 | > 7.00 | > 7.00 | > 7.00 | > 7.00 | Cc1ccc2cc1CNC(=O)[C@H](CCc1ccccc1)NC(=O)[C@@H](NC(=O)CCOCC1CC1)CC(=O)N1CCCC(CCO2)C1 (stereo partly drawn) [Compound 594, 3-(cyclopropylmethoxy)-N-((9S,12S)-5^4-methyl-8,11,14-trioxo-9-phenethyl-4-oxa-7,10-diaza-1(3,1)-piperidina-5(1,3)-benzenacyclotetradecaphane-12-yl)propanamide]
> 7.00 | > 7.00 | > 7.00 | > 7.00 | > 7.00 | > 7.00 | Cc1ccc2cc1CNC(=O)[C@H](CCc1ccccc1)NC(=O)[C@@H](NC(=O)CCNCCC1CC3CCC1C3)CC(=O)N1CCCC(CCO2)C1 (stereo partly drawn) [Compound 698, 3-((2-(bicyclo[2.2.1]heptan-2-yl)ethyl)amino)-N-((9S,12S)-5^4-methyl-8,11,14-trioxo-9-phenethyl-4-oxa-7,10-diaza-1(3,1)-piperidina-5(1,3)-benzenacyclotetradecaphane-12-yl)propanamide]
> 7.00 | > 7.00 | > 7.00 | > 7.00 | > 7.00 | > 7.00 | Cc1ccc2cc1CNC(=O)[C@H](CCc1ccccc1)NC(=O)[C@@H](NC(=O)CCN1CC3(CCC3)C1)CC(=O)N1CCCC(CCO2)C1 (stereo partly drawn) [Compound 659, N-((9S,12S)-5^4-methyl-8,11,14-trioxo-9-phenethyl-4-oxa-7,10-diaza-1(3,1)-piperidina-5(1,3)-benzenacyclotetradecaphane-12-yl)-3-(2-azaspiro[3.3]heptan-2-yl)propanamide]
> 7.00 | > 7.00 | > 7.00 | > 7.00 | > 7.00 | > 7.00 | Cc1ccc2cc1CNC(=O)[C@H](CCc1ccccc1)NC(=O)[C@@H](NC(=O)CCOC1CCCC1)CC(=O)N1CCCC(CCO2)C1 (stereo partly drawn) [Compound 629, 3-(cyclopentyloxy)-N-((9S,12S)-5^4-methyl-8,11,14-trioxo-9-phenethyl-4-oxa-7,10-diaza-1(3,1)-piperidina-5(1,3)-benzenacyclotetradecaphane-12-yl)propanamide]
> 7.00 | > 7.00 | > 7.00 | > 7.00 | > 7.00 | > 7.00 | Cc1ccc2cc1CNC(=O)[C@H](CCc1ccncc1)NC(=O)[C@@H](NC(=O)Cc1ccccc1F)CC(=O)N1CCCC(CCO2)C1 (stereo partly drawn) [Compound 737, 2-(2-fluorophenyl)-N-((9S,12S)-5^4-methyl-8,11,14-trioxo-9-(2-(pyridin-4-yl)ethyl)-4-oxa-7,10-diaza-1(3,1)-piperidina-5(1,3)-benzenacyclotetradecaphane-12-yl)acetamide]
